Measurements from patent US20080207733A1, “Composition for the Treatment of Vitiligo” (priority 2003, published 2008).
Where “and” joins values, the source holds several entries; their conditions need not be identical. Equal values may be shown once.

Legend:
[1] = product to be used in the trial
[2] = tested on: patients suffering from vitiligo; assay: Clinical trial in humans, repigmentation in vitiligo
[3] = second part of Table 2
[4] = toxicological, teratologic and clinical trials
[5] = topical, 3 times a week, 6 months, Melagenina Plus-resistant patients

Structure (SMILES): O=C(O)[C@@H]1CCCN1 [L-Proline]
- Spectrum determination, Fresh (200-205 nm, hydroalcoholic solution just prepared): 0.051 UA
- Spectrum determination, 12 months (200-205 nm, hydroalcoholic solution, 12 months): 0.072UA
- Spectrum determination, 24 months (200-205 nm, hydroalcoholic solution, 24 months): 0.071 UA
- remains stable after preparing the solution (hydroalcoholic solution, spectrophotometric determinations and aminoacids analysis): 2 years
- dermal and ophthalmic irritability [1]: innocuousness
- reversibility of repigmentant effect once application is discontinued ([2]; human, in vivo): irreversible
- Effect Evaluation ([2]; per patient No. 1-21, 1.5 mg/mL hydroalcoholic solution at 80%, topical, 3 times a week, 6 months): Noteworthy (10×) and Poor (2×)
- increase of lesions or local or systemic side effect ([2]; topical, 3 times a week, 6 months): no increase of lesions or local or systemic side effect were reported in any of the cases
- patients that did not show response to the treatment [2, 5]: 2 patients of 22
- patients that showed noteworthy to moderate response [2, 5]: 18 patients
- L-Proline concentration, Fresh ([3]; hydroalcoholic solution just prepared): 1.01 mg/mL
- L-Proline concentration, 12 months ([3]; hydroalcoholic solution, 12 months): 1.00 mg/mL
- L-Proline concentration, 24 months ([3]; hydroalcoholic solution, 24 months): 1.00 mg/mL
- adverse reactions [4]: No severe adverse reactions were reported
